Measurements from patent US6455526B1, “Biodegradable polymer encapsulated pharmaceutical compositions and method for preparing the same” (Aventis Pharmaceuticals, Inc., priority 1998, dated 2002).

Assays:
[1] = test system: A10 vs. A9 neuronal activity; details: after chronic administration; cited from earlier work
[2] = test system: amphetamine-stimulated locomotion; details: in vivo; cited from earlier work
Male Wistar rats = assay: Chronic Mild Stress Model of Depression (CMS), sucrose intake; assay type: in vivo, rat; details: for Sucrose intake in control animals / Sucrose intake in stressed animals: five weeks; for Sucrose intake in stressed animals: treatment effect
Excerpt: CMS uses mild stressors, such as food and water deprivation, cage tilts, changes of cage mates, etc. Over a period of weeks of exposure to the mild stressors, the animals gradually reduce their consumption of a highly preferred sucrose solution which persists (in untreated animals) for several weeks following the cessation of stress. This decreased sensitivity to reward (the sucrose solution) reflects anhedonia, a symptom of a Major Depressive Episode (see for example, Behavioral Pharmacol. 5: Suppl.1, p. 86 (1994) where lithium, carbamazepine and ketoconazole were evaluated in CMS; Psychopharmacology 93:358-364 (1987) where a tricyclic antidepressant was evaluated in CMS; Behavioral Pharmacology: 5:344-350 (1994) where a catechol-O-methyl transferase inhibitor was evaluated in CMS).
Male Wistar rats were brought into the laboratory two months before the start of the experiment at which time they weighed approximately 300 grams. Except as described below, the animals were singly housed, with food and water freely available, and maintained on a 12 hour light/dark cycle (lights on at 8AM) at a temperature of about 22° C.
The animals were first trained to consume a 1% sucrose solution; training consisted of eight 1 hour baseline tests in which sucrose was presented, in the home cage, following 14 hours food and water deprivation; intake was measured by weighing pre-weighed bottles containing the sucrose solution at the end of the test. Subsequently, sucrose consumption was monitored, under similar conditions, at weekly intervals throughout the whole experiment.
On the basis of their sucrose intakes in the final baseline test, the animals were divided into two matched groups. One group of animals was subjected to a chronic mild stress procedure for a period of 9 consecutive weeks. Each week of stress regime consisted of: two periods of food or water deprivation (12 and 14 hour), two periods of 45 degree cage tilt (12 and 14 hour+), two periods of intermittent overnight illumination (lights on and off every 2 hours), two 14 hour periods of soiled cage (200 ml water in sawdust bedding), two 14 hour periods of paired housing, two 14 hour periods of low intensity stroboscopic illumination (150 flashes/min). Stressors were applied continuously throughout the day and night, and scheduled randomly. Control animals were housed in a separate room and had no contract with the stressed animals. They were deprived of food and water for the 14 hours preceding each sucrose test, but otherwise food and water were freely available in the home cage. On the basis of their sucrose intake scores following 3 weeks of stress, both stressed and control animals were each divided further into matched subgroups (n=8), and for subsequent five weeks they received daily administrations of vehicle (1 ml/kg, intraperitoneally (ip)) imipramine (10 mg/kg, ip) or MDL 100,907 (0.002, 0.02 and 0.2 mg/kg orally). All drug injections were in a volume of 1 ml/kg body weight. Drugs were administered at 10AM and sucrose tests were carried out 24 hours following the last drug treatment. After five weeks, the treatments were terminated and after one week of withdrawal a final sucrose test was carried out. Stress was continued throughout the period of treatment and withdrawal.
Results were analyzed by multiple analysis of variance, followed by Fisher's LSD test for post hoc comparisons of means.

prepulse inhibition = details: cited from earlier work
myocardial tissue = details: cited from earlier work
[3] = 0.002, 0.02 and 0.2 mg/kg orally daily

| SMILES | Effects on A10 vs. A9 neuronal activity [1] | Amphetamine-stimulated locomotion [2] | Sucrose intake in stressed animals throughout the whole treatment period (Male Wistar rats; 0.002 mg/kg orally) | Sucrose solution drunk by stressed animals at end of treatment (Week 5) (Male Wistar rats; 0.02 mg/kg orally) | Sucrose intake in stressed animals vs initial scores (Week 0) (Male Wistar rats; 0.02 mg/kg orally, after two weeks of treatment) | Sucrose solution drunk by stressed animals at end of treatment (Week 5) (Male Wistar rats; 0.2 mg/kg orally) | Sucrose intake in stressed animals vs initial scores (Week 0) (Male Wistar rats; 0.2 mg/kg orally, after three weeks of treatment) | Sucrose intake in control animals one week after withdrawal (Male Wistar rats; 0.002, 0.02, 0.2 mg/kg orally) | Sucrose intake in stressed animals one week after withdrawal (Male Wistar rats; 0.002, 0.02, 0.2 mg/kg orally) | Sucrose intake in control animals (Male Wistar rats; [3]) | Sucrose intake in stressed animals (Male Wistar rats; [3]) | Disrupted PPI (prepulse inhibition) (prepulse inhibition; disruption produced by 5HT agonists in Wistar rats) | 5-HT2 agonist-induced deficits in prepulse inhibition and latent inhibition (prepulse inhibition; rat, in vivo) | Duration of the action potential of myocardial tissue (myocardial tissue) | Sucrose intake in control animals (Male Wistar rats; 10 mg/kg, ip daily) | Sucrose intake in stressed animals (Male Wistar rats; 10 mg/kg, ip daily) | Sucrose intake of drug-treated stressed animals vs drug- and saline-treated controls (Male Wistar rats; 10 mg/kg, ip, after five weeks of treatment) | Sucrose intake in stressed animals vs Week 0 scores (Male Wistar rats; 10 mg/kg, ip, after four weeks of treatment) | Increase of sucrose intake in stressed animals after withdrawal (Male Wistar rats; 10 mg/kg, ip, one week after withdrawal) |
| --- | --- | --- | --- | --- | --- | --- | --- | --- | --- | --- | --- | --- | --- | --- | --- | --- | --- | --- | --- |
| COc1cccc(C(O)C2CCN(CCc3ccc(F)cc3)CC2)c1OC (stereo not drawn) [MDL 100,907, (+)-α-(2,3-dimethoxyphenyl)-1-[2-(4-fluorophenyl)ethyl]-4-piperidinemethanol] | selective effects | blockade | no significant effect | comparable to that of vehicle-treated controls | significantly increased | comparable to that of vehicle-treated controls | significantly increased | not significantly changed | not significantly changed | no significant effect | gradually reversed the CMS-induced deficit in sucrose intake | restore disrupted PPI | reversal | increases |  |  |  |  |  |
| CN(C)CCCN1c2ccccc2CCc2ccccc21 [Imipramine, reference compound] |  |  |  |  |  |  |  |  |  |  |  |  |  |  | no significant effect | gradual increase of sucrose intake | no significant differences | significantly increased | maintained at similar level |
